{"source": "patent US20110112151A1", "about": "“COMPOUND CAPABLE OF INHIBITING 11-BETA HYDROXYSTERIOD DEHYDROGENASE” (priority 2008, published 2011)", "key": {"11β-HSD1": {"target": "T1, 11β-HSD1 (Homo sapiens, UniProt P28845)", "T1 construct": "expressed in transfected cells; host or cells: HEK 293 (stably transfected, HEK 293/HSD11B1)", "T1 sequence (P28845 whole entry)": "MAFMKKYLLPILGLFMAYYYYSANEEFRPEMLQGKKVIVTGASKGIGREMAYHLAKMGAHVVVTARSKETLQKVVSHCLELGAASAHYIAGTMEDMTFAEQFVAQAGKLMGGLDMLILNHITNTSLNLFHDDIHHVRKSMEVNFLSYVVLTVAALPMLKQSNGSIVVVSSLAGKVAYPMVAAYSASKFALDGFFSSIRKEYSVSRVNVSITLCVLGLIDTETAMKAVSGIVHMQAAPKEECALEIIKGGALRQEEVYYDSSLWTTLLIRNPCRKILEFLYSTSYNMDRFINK", "test": "11β-HSD1 HEK assay (cell based assay, SPA)", "how_it_was_run": "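Human 11β-HSD1 activity was assessed in intact HEK 293 cells stably expressing the HSD11B1 gene, grown in 96-well plates to 80% confluence. Serum-free medium with ^3H-cortisone and compound in 1% DMSO was added and incubated at 37° C. Medium was then mixed with anti-cortisol antibody and SPA beads, and tritiated product was counted by scintillation to derive percentage inhibition versus high and low controls.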"}, "[1]": {"conditions": "HEK293, at 1 μM, whole HEK 293 cells stably transfected with the HSD11B1 gene, 3H-cortisone substrate, read-out: Activity (inhibition of 11β-HSD1)"}}, "note": "Where two headings read alike, the source gives them in different places."}
{"compound": "O=C(COc1cccnc1)C12CC3CC(CC(C3)C1)C2", "note": "[Example 61, 1-Adamantan-1-yl-2-(pyridin-3-yloxy)-ethanone]", "values": [{"measurement": "inhibition at 1 µM", "setting": "11β-HSD1; [1]", "value": "> 60", "unit": "%"}, {"measurement": "melting point", "value": "73 to 75", "unit": "°C"}]}
{"compound": "O=C(CS(=O)(=O)c1ccc(C(F)(F)F)cn1)C12CC3CC(CC(C3)C1)C2", "note": "[Example 67, 1-Adamantan-1-yl-2-(5-trifluoromethyl-pyridine-2-sulfonyl)-ethanone]", "values": [{"measurement": "inhibition at 1 µM", "setting": "11β-HSD1; [1]", "value": "20 to 60", "unit": "%"}, {"measurement": "melting point", "value": "138 to 139", "unit": "°C"}]}
{"compound": "O=C(C[S+]([O-])Cc1ccncc1)C12CC3CC(CC(C3)C1)C2", "note": "(stereo not shown) [Example 84, 1-Adamantan-1-yl-2-(pyridin-4-ylmethanesulfinyl)-ethanone]", "values": [{"measurement": "inhibition at 1 µM", "setting": "11β-HSD1; [1]", "value": "> 60", "unit": "%"}, {"measurement": "melting point", "value": "119 to 123", "unit": "°C"}]}
{"compound": "CCNC(=O)c1ccc(SCC(=O)C23CC4CC(CC(C4)C2)C3)nc1", "note": "[Example 34, 6-{[2-(adamantan-1-yl)-2-oxoethyl]sulfanyl}-N-ethylpyridine-3-carboxamide]", "values": [{"measurement": "inhibition at 1 µM", "setting": "11β-HSD1; [1]", "value": "> 60", "unit": "%"}, {"measurement": "melting point", "value": "135.5 to 137", "unit": "°C"}]}
{"compound": "CC(=O)Nc1nnc([S+]([O-])CC(=O)C23CC4CC(CC(C4)C2)C3)s1", "note": "(stereo not shown) [Example 94, N-(5-{[2-(Adamantan-1-yl)-2-oxoethane]sulfinyl}-1,3,4-thiadiazol-2-yl)acetamide]", "values": [{"measurement": "inhibition at 1 µM", "setting": "11β-HSD1; [1]", "value": "> 60", "unit": "%"}, {"measurement": "melting point", "value": "216 to 218", "unit": "°C"}]}
{"compound": "Cn1c(SCC(=O)C23CC4CC(CC(C4)C2)C3)nc2ccccc21", "note": "[Example 14, 1-Adamantan-1-yl-2-(1-methyl-1H-benzoimidazol-2-ylsulfanyl)-ethanone]", "values": [{"measurement": "inhibition at 1 µM", "setting": "11β-HSD1; [1]", "value": "< 20", "unit": "%"}, {"measurement": "melting point", "value": "146 to 147.5", "unit": "°C"}]}
{"compound": "CN(C)C(=O)c1ccc(SCC(=O)C23CC4CC(CC(C4)C2)C3)nc1", "note": "[Example 35, 6-(2-Adamantan-1-yl-2-oxo-ethylsulfanyl)-N,N-dimethyl-nicotinamide]", "values": [{"measurement": "inhibition at 1 µM", "setting": "11β-HSD1; [1]", "value": "> 60", "unit": "%"}, {"measurement": "melting point", "value": "62.5 to 64.5", "unit": "°C"}]}
{"compound": "O=C(C[S+]([O-])Cc1cccnc1)C12CC3CC(CC(C3)C1)C2", "note": "(stereo not shown) [Example 8, 1-Adamantan-1-yl-2-(pyridin-3-ylmethanesulfinyl)-ethanone]", "values": [{"measurement": "inhibition at 1 µM", "setting": "11β-HSD1; [1]", "value": "> 60", "unit": "%"}, {"measurement": "melting point", "value": "116 to 119", "unit": "°C"}]}
{"compound": "Cc1nnc(SCC(=O)C23CC4CC(CC(C4)C2)C3)n1C(C)C", "note": "[Example 103, 1-(Adamantan-1-yl)-2-{[5-methyl-4-(propan-2-yl)-4H-1,2,4-triazol-3-yl]sulfanyl}ethan-1-one]", "values": [{"measurement": "inhibition at 1 µM", "setting": "11β-HSD1; [1]", "value": "> 60", "unit": "%"}, {"measurement": "melting point", "value": "119 to 120.5", "unit": "°C"}]}
{"compound": "Cn1cnnc1S(=O)(=O)CC(=O)C12CC3CC(CC(C3)C1)C2", "note": "[Example 77, 1-Adamantan-1-yl-2-(4-methyl-4H-[1,2,4]triazole-3-sulfonyl)-ethanone]", "values": [{"measurement": "inhibition at 1 µM", "setting": "11β-HSD1; [1]", "value": "> 60", "unit": "%"}, {"measurement": "melting point", "value": "149 to 150", "unit": "°C"}]}
{"compound": "O=C(CSCc1ccc(Cl)nc1)C12CC3CC(CC(C3)C1)C2", "note": "[Example 62, 1-Adamantan-1-yl-2-(6-chloro-pyridin-3-ylmethylsulfanyl)-ethanone]", "values": [{"measurement": "inhibition at 1 µM", "setting": "11β-HSD1; [1]", "value": "20 to 60", "unit": "%"}, {"measurement": "melting point", "value": "88 to 90", "unit": "°C"}]}
{"compound": "O=C(C[S+]([O-])Cc1ccccn1)C12CC3CC(CC(C3)C1)C2", "note": "(stereo not shown) [Example 17, 1-Adamantan-1-yl-2-(pyridin-2-ylmethanesulfinyl)-ethanone]", "values": [{"measurement": "inhibition at 1 µM", "setting": "11β-HSD1; [1]", "value": "> 60", "unit": "%"}, {"measurement": "melting point", "value": "87 to 88.5", "unit": "°C"}]}
{"compound": "Nc1nnc(SCC(=O)C23CC4CC(CC(C4)C2)C3)s1", "note": "[Example 88, 1-(Adamantan-1-yl)-2-[(5-amino-1,3,4-thiadiazol-2-yl)sulfanyl]ethanone]", "values": [{"measurement": "inhibition at 1 µM", "setting": "11β-HSD1; [1]", "value": "> 60", "unit": "%"}, {"measurement": "melting point", "value": "198 to 199", "unit": "°C"}]}
{"compound": "Cc1nnc(SCC(=O)C23CC4CC(CC(C4)C2)C3)n1Cc1ccc(Cl)cc1", "note": "[Example 105, 1-(Adamantan-1-yl)-2-({4-[(4-chlorophenyl)methyl]-5-methyl-4H-1,2,4-triazol-3-yl}sulfanyl)ethan-1-one]", "values": [{"measurement": "inhibition at 1 µM", "setting": "11β-HSD1; [1]", "value": "20 to 60", "unit": "%"}, {"measurement": "melting point", "value": "158 to 159", "unit": "°C"}]}
{"compound": "CN(C)c1nnc(SCC(=O)C23CC4CC(CC(C4)C2)C3)s1", "note": "[Example 104, 1-(Adamantan-1-yl)-2-{[5-(dimethylamino)-1,3,4-thiadiazol-2-yl]sulfanyl}ethan-1-one]", "values": [{"measurement": "inhibition at 1 µM", "setting": "11β-HSD1; [1]", "value": "> 60", "unit": "%"}, {"measurement": "melting point", "value": "150 to 151", "unit": "°C"}]}
{"compound": "Cc1nnc(SCC(=O)C23CC4CC(CC(C4)C2)C3)n1C", "note": "[Example 87, 1-(Adamantan-1-yl)-2-[(4,5-dimethyl-1,2,4-triazol-3-yl)sulfanyl]ethanone]", "values": [{"measurement": "inhibition at 1 µM", "setting": "11β-HSD1; [1]", "value": "> 60", "unit": "%"}, {"measurement": "melting point", "value": "113 to 114", "unit": "°C"}]}
{"compound": "Cc1nnc(SCC(=O)C23CC4CC(CC(C4)C2)C3)s1", "note": "[Example 78, 1-Adamantan-1-yl-2-(5-methyl-[1,3,4]thiadiazol-2-ylsulfanyl)-ethanone]", "values": [{"measurement": "inhibition at 1 µM", "setting": "11β-HSD1; HEK293, read-out: Activity (inhibition of 11β-HSD1)", "value": "> 60", "unit": "%"}, {"measurement": "melting point", "value": "102 to 105", "unit": "°C"}]}
{"compound": "Cn1c(SCC(=O)C23CC4CC(CC(C4)C2)C3)nnc1-c1cccs1", "note": "[Example 102, 1-(Adamantan-1-yl)-2-{[4-methyl-5-(thiophen-2-yl)-4H-1,2,4-triazol-3-yl]sulfanyl}ethan-1-one]", "values": [{"measurement": "inhibition at 1 µM", "setting": "11β-HSD1; [1]", "value": "> 60", "unit": "%"}, {"measurement": "melting point", "value": "156 to 157", "unit": "°C"}]}
{"compound": "O=C(O)c1ccc(SCC(=O)C23CC4CC(CC(C4)C2)C3)nc1", "note": "[Example 29, 6-(2-Adamantan-1-yl-2-oxo-ethylsulfanyl)-nicotinic acid]", "values": [{"measurement": "inhibition at 1 µM", "setting": "11β-HSD1; [1]", "value": "> 60", "unit": "%"}, {"measurement": "melting point", "value": "174 to 176", "unit": "°C"}]}
{"compound": "O=C(CSCc1ccccn1)C12CC3CC(CC(C3)C1)C2", "note": "[Example 11, 1-Adamantan-1-yl-2-(pyridin-2-ylmethylsulfanyl)-ethanone]", "values": [{"measurement": "inhibition at 1 µM", "setting": "11β-HSD1; [1]", "value": "> 60", "unit": "%"}, {"measurement": "melting point", "value": "38 to 39", "unit": "°C"}]}
{"compound": "O=C(/C=C/c1cccnc1)C12CC3CC(CC(C3)C1)C2", "note": "[Example 38, 1-Adamantan-1-yl-3-pyridin-3-yl-propenone]", "values": [{"measurement": "inhibition at 1 µM", "setting": "11β-HSD1; [1]", "value": "> 60", "unit": "%"}, {"measurement": "melting point", "value": "107 to 108.5", "unit": "°C"}]}
{"compound": "O=C(CSc1n[nH]c(-c2ccco2)n1)C12CC3CC(CC(C3)C1)C2", "note": "[Example 90, 1-(Adamantan-1-yl)-2-{[5-(furan-2-yl)-1H-1,2,4-triazol-3-yl]sulfanyl}ethanone]", "values": [{"measurement": "inhibition at 1 µM", "setting": "11β-HSD1; [1]", "value": "< 20", "unit": "%"}, {"measurement": "melting point", "value": "177 to 178", "unit": "°C"}]}
{"compound": "O=C(Nc1nnc(SCC(=O)C23CC4CC(CC(C4)C2)C3)s1)C1CC1", "note": "[Example 95, N-(5-{[2-(Adamantan-1-yl)-2-oxoethyl]sulfanyl}-1,3,4-thiadiazol-2-yl)cyclopropanecarboxamide]", "values": [{"measurement": "inhibition at 1 µM", "setting": "11β-HSD1; [1]", "value": "20 to 60", "unit": "%"}, {"measurement": "melting point", "value": "218 to 219", "unit": "°C"}]}
